From PubChem BioAssay (NCI)
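Values below derive from 48-hour exposures of cells grown in 96-well plates, with endpoints linearly interpolated between the two concentrations bracketing the appropriate inhibition level. Here, GI50 denotes the concentration required for 50% inhibition of growth. TGI marks complete inhibition of growth.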

How the values were obtained:
Assay in all cases: NCI-60 cell line screen, 48 h
EKVX NSCLC = test system: EKVX NSCLC
U251 CNS = test system: U251 CNS
ACHN renal = test system: ACHN renal
MDA-MB-231 breast = test system: MDA-MB-231 breast
CCRF-CEM leukemia = test system: CCRF-CEM leukemia
NCI-H23 lung = test system: NCI-H23 lung
MDA-MB-435 = test system: MDA-MB-435
COLO 205 colon = test system: COLO 205 colon
SR leukemia = test system: SR leukemia
HL-60(TB) leukemia = test system: HL-60(TB) leukemia
OVCAR-3 ovarian = test system: OVCAR-3 ovarian
RXF 393 renal = test system: RXF 393 renal
CAKI-1 renal = test system: CAKI-1 renal
SK-OV-3 ovarian = test system: SK-OV-3 ovarian
MCF7 breast = test system: MCF7 breast
SF-295 CNS = test system: SF-295 CNS
DU-145 prostate = test system: DU-145 prostate
HCT-15 colon = test system: HCT-15 colon
OVCAR-8 ovarian = test system: OVCAR-8 ovarian
NCI/ADR-RES ovarian = test system: NCI/ADR-RES ovarian
A549 NSCLC = test system: A549 NSCLC
SW-620 colon = test system: SW-620 colon
OVCAR-5 ovarian = test system: OVCAR-5 ovarian
LOX IMVI melanoma = test system: LOX IMVI melanoma
NCI-H522 lung = test system: NCI-H522 lung
IGROV1 ovarian = test system: IGROV1 ovarian
KM12 colon = test system: KM12 colon
SNB-75 CNS = test system: SNB-75 CNS
UO-31 renal = test system: UO-31 renal
SK-MEL-5 melanoma = test system: SK-MEL-5 melanoma
UACC-257 melanoma = test system: UACC-257 melanoma
M14 melanoma = test system: M14 melanoma
RPMI-8226 leukemia = test system: RPMI-8226 leukemia
HOP-62 NSCLC = test system: HOP-62 NSCLC
MOLT-4 leukemia = test system: MOLT-4 leukemia
SK-MEL-2 melanoma = test system: SK-MEL-2 melanoma
K-562 leukemia = test system: K-562 leukemia
SF-268 CNS = test system: SF-268 CNS
TK-10 renal = test system: TK-10 renal
HCC-2998 colon = test system: HCC-2998 colon
HT29 colon = test system: HT29 colon
SK-MEL-28 melanoma = test system: SK-MEL-28 melanoma
SF-539 CNS = test system: SF-539 CNS
UACC-62 melanoma = test system: UACC-62 melanoma
NCI-H226 lung = test system: NCI-H226 lung
A498 renal = test system: A498 renal
T-47D breast = test system: T-47D breast

Work on `O=C1c2cc3c(cc2-c2c1c1ccc(Cl)cc1c(=O)n2C[C@H](O)CO)OCO3` yielded a GI50 (EKVX NSCLC) of 0.153 µM, a TGI (EKVX NSCLC) of 1.52 µM and a GI50 (U251 CNS) of 0.0198 µM. The TGI (U251 CNS) was 1.28 µM, the GI50 (ACHN renal) was 0.0199 µM and the TGI (ACHN renal) was 0.111 µM. The GI50 (MDA-MB-231 breast) was 0.32 µM, the TGI (MDA-MB-231 breast) was 1.97 µM and the GI50 (CCRF-CEM leukemia) was under 0.01 µM. The TGI (CCRF-CEM leukemia) was 24.2 µM, the GI50 (NCI-H23 lung) was 0.0366 µM and the TGI (NCI-H23 lung) was 0.714 µM. It also gave a GI50 (MDA-MB-435) of 0.0691 µM, a TGI (MDA-MB-435) of 0.271 µM and a GI50 (COLO 205 colon) of 0.0954 µM. The TGI (COLO 205 colon) was 10.1 µM, the GI50 (SR leukemia) was under 0.01 µM and the TGI (SR leukemia) was 12.7 µM. The GI50 (HL-60(TB) leukemia) was 0.0331 µM, the TGI (HL-60(TB) leukemia) was 3.1 µM and the GI50 (OVCAR-3 ovarian) was 0.0615 µM. The TGI (OVCAR-3 ovarian) was 0.316 µM, the GI50 (RXF 393 renal) was 0.0275 µM and the TGI (RXF 393 renal) was 0.126 µM. For the same compound, the GI50 (CAKI-1 renal) was under 0.01 µM, the TGI (CAKI-1 renal) was 0.192 µM and the GI50 (SK-OV-3 ovarian) was 0.0444 µM. For the same compound, the TGI (SK-OV-3 ovarian) was 1.66 µM, the GI50 (MCF7 breast) was under 0.01 µM and the TGI (MCF7 breast) was 0.759 µM. The GI50 (SF-295 CNS) was under 0.01 µM, the TGI (SF-295 CNS) was 0.341 µM and the GI50 (DU-145 prostate) was 0.0323 µM. The TGI (DU-145 prostate) was 1.08 µM, the GI50 (HCT-15 colon) was 0.11 µM and the TGI (HCT-15 colon) was 1.28 µM. For the same compound, the GI50 (OVCAR-8 ovarian) was 0.0521 µM, the TGI (OVCAR-8 ovarian) was 2.98 µM and the GI50 (NCI/ADR-RES ovarian) was 0.0322 µM. For the same compound, the TGI (NCI/ADR-RES ovarian) was 1.12 µM, the GI50 (A549 NSCLC) was 0.0568 µM and the TGI (A549 NSCLC) was 0.72 µM. The GI50 (SW-620 colon) was 0.02 µM, the TGI (SW-620 colon) was 1.02 µM and the GI50 (OVCAR-5 ovarian) was 0.119 µM. It also gave a TGI (OVCAR-5 ovarian) of 1.15 µM, a GI50 (LOX IMVI melanoma) of 0.0122 µM and a TGI (LOX IMVI melanoma) of 0.0781 µM. The GI50 (NCI-H522 lung) was 0.0422 µM, the TGI (NCI-H522 lung) was 1.82 µM and the GI50 (IGROV1 ovarian) was 0.135 µM. The TGI (IGROV1 ovarian) was over 100 µM, the GI50 (KM12 colon) was 0.113 µM and the TGI (KM12 colon) was 0.618 µM. The GI50 (SNB-75 CNS) was 0.0245 µM, the TGI (SNB-75 CNS) was 1.1 µM and the GI50 (UO-31 renal) was 0.0348 µM. For the same compound, the TGI (UO-31 renal) was 0.19 µM, the GI50 (SK-MEL-5 melanoma) was 0.0322 µM and the TGI (SK-MEL-5 melanoma) was 0.114 µM. For the same compound, the GI50 (UACC-257 melanoma) was 0.13 µM, the TGI (UACC-257 melanoma) was 0.604 µM and the GI50 (M14 melanoma) was 0.025 µM. The TGI (M14 melanoma) was 0.244 µM, the GI50 (RPMI-8226 leukemia) was 0.0429 µM and the TGI (RPMI-8226 leukemia) was 0.54 µM. It also gave a GI50 (HOP-62 NSCLC) of 0.022 µM, a TGI (HOP-62 NSCLC) of 1.51 µM and a GI50 (MOLT-4 leukemia) of under 0.01 µM. The TGI (MOLT-4 leukemia) was 12.4 µM, the GI50 (SK-MEL-2 melanoma) was 0.284 µM and the TGI (SK-MEL-2 melanoma) was 1.11 µM. The GI50 (K-562 leukemia) was 0.0457 µM, the TGI (K-562 leukemia) was over 100 µM and the GI50 (SF-268 CNS) was 0.0185 µM. The TGI (SF-268 CNS) was 1.04 µM, the GI50 (TK-10 renal) was 0.277 µM and the TGI (TK-10 renal) was 1.76 µM. For the same compound, the GI50 (HCC-2998 colon) was 0.122 µM, the TGI (HCC-2998 colon) was 0.701 µM and the GI50 (HT29 colon) was 0.0348 µM. It also gave a TGI (HT29 colon) of over 100 µM, a GI50 (SK-MEL-28 melanoma) of 0.2 µM and a TGI (SK-MEL-28 melanoma) of 1.28 µM. The GI50 (SF-539 CNS) was 0.0253 µM, the TGI (SF-539 CNS) was 0.093 µM and the GI50 (UACC-62 melanoma) was 0.0122 µM. It also gave a TGI (UACC-62 melanoma) of 0.122 µM, a GI50 (NCI-H226 lung) of 0.0296 µM and a TGI (NCI-H226 lung) of 0.165 µM. The GI50 (A498 renal) was 0.0387 µM, the TGI (A498 renal) was 0.16 µM and the GI50 (T-47D breast) was 0.0315 µM. The TGI (T-47D breast) was over 100 µM.
